Where two headings read alike, the source gives them in different places.
What was measured:
Format in all cases: cell-based
[1] = test system: Ba/F3 cells expressing EGFR mutations; assay: Cell proliferation assay, Ba/F3 cells expressing EGFR mutations (CellTiter-Glo, 72 hours); details: CellTiter-Glo
In short: (§1)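 Ba/F3 cells (5000/well) and PC-9 cells (500/well, RPMI1640 with 10% FBS) were plated overnight and then dosed with a compound concentration series. Viable cells were read at day 0 (G0) and after treatment (G3). GI50 came from curve fits of G0-corrected proliferation relative to DMSO.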

PC-9 = assay: Cell proliferation assay, PC-9 cells (CellTiter-Glo, 72 hours); details: PC9 cells, CellTiter-Glo, read-out: PC9 GI50
In short: as §1

A-431 = assay: Cell proliferation GI50, A-431 cells (Table 6); details: A-431 cells
Procedure: [Worded in the source for another cell line; this cell line is reported under the same test.] Ba/F3 cells expressing EGFR mutations were seeded in 384-well plates at 5000 cells/well in RPMI1640 medium containing […]. PC-9 at 500 cells/well was seeded into 384-well plates in RPMI1640 medium with 10% FBS. After overnight incubation, the assay plates were dosed with compounds at a series of concentrations. Alongside dosing the assay plates, the day 0 plate was processed using CellTiter-Glo® Luminescent Cell Viability Assay (Promega) to measure the number of viable cells (G0). The assay plates were further incubated for 72 hours and the number of viable cells (G3) was measured. The percentage of proliferation was calculated as: […]=100×(G3 value of sample well−G0 value)/(G3 value of DMSO control−G0 value). The concentration of compound producing 50% proliferation inhibition (GI50) was further calculated in best-fit curves using XLFit software. N/A=not available.

[2] = BaF3 cells, EGFR DEL19-C797S, read-out: DEL19-C797S/BaF3 GI50
[3] = BaF3 cells, EGFR DEL19-T790-C797S, read-out: DEL19-T790-C797S/BaF3 GI50
[4] = BaF3 cells, EGFR L858R, read-out: L858R/BaF3 GI50
[5] = BaF3 cells, EGFR L858R-C797S, read-out: L858R-C797S/BaF3 GI50
[6] = BaF3 cells, EGFR L858R-T790-C797S, read-out: L858R-T790-C797S/BaF3 GI50
[7] = BaF3 cells, EGFR L858R-T790M, read-out: L858R-T790M/BaF3 GI50
[8] = EGFR DEL19-T790M, read-out: DEL19-T790M GI50

Row | GI50 [1, 2] | GI50 [1, 3] | GI50 [1, 4] | GI50 [1, 5] | GI50 [1, 6] | GI50 [1, 7] | GI50 [1, 8] | GI50 (PC-9) | GI50 (A-431) | Compound
1 | 393 nM | 1350 nM | 2150 nM | 1200 nM | 2380 nM | 1050 nM | 1400 nM | 1320 nM | 7120 nM | Cn1ncc2c1OCCN1CC3CCC(C3)(C1)n1c(nc3ccc(N4CCOCC4)cc31)NC(=O)c1cc-2c(=O)n(C)c1 (single isomer, unassigned) [Example A62A, 15,21-Dimethyl-5-(morpholin-4-yl)-23-oxa-2,9,11,15,20,21,26-heptaazaheptacyclo[24.4.1.1^{1,28}.1^{13,17}.0^{2,10}.0^{3,8}.0^{18,22}]tritriaconta-3,5,7,9,13,17(33),18(22),19-octaene-12,16-dione]
2 | 324 nM | 540 nM | 2370 nM | 1020 nM | 988 nM | 3690 nM | 929 nM | 841 nM | 9370 nM | CN1CCN(c2ccc3nc4n(c3c2)C23CCC(CN(CCOc5c(cnn5C)-c5cc(cn(C)c5=O)C(=O)N4)C2)C3)CC1 (single isomer, unassigned) [Example A63A]
3 | 209 nM | 452 nM | 945 nM | 561 nM | 656 nM | 1970 nM | 652 nM | 710 nM | 2200 nM | CN(C)C1CN(c2ccc3nc4n(c3c2)C23CCC(CN(CCOc5c(cnn5C)-c5cc(cn(C)c5=O)C(=O)N4)C2)C3)C1 (single isomer, unassigned) [Example A65A]

Reference: patent publication US20260365670A1, “EGFR INHIBITORS AND USES THEREOF” (DIZAL (JIANGSU) PHARMACEUTICAL CO., LTD., priority 2022, published 2026)
